{"source": "paper PMC12380724", "about": "“The air pollutant phenanthrene disrupts calcium cycling and alters repolarization in female sheep ventricular cardiomyocytes” (Physiological Reports, 2025)", "target": "T1, ERG channel (rapid delayed rectifier potassium channel, IKr) (Ovis aries, UniProt A0ACI6Q0V2)", "T1 construct": "gene KCNH2; native IKr in isolated left ventricular myocytes", "T1 sequence (A0ACI6Q0V2 1-1163)": "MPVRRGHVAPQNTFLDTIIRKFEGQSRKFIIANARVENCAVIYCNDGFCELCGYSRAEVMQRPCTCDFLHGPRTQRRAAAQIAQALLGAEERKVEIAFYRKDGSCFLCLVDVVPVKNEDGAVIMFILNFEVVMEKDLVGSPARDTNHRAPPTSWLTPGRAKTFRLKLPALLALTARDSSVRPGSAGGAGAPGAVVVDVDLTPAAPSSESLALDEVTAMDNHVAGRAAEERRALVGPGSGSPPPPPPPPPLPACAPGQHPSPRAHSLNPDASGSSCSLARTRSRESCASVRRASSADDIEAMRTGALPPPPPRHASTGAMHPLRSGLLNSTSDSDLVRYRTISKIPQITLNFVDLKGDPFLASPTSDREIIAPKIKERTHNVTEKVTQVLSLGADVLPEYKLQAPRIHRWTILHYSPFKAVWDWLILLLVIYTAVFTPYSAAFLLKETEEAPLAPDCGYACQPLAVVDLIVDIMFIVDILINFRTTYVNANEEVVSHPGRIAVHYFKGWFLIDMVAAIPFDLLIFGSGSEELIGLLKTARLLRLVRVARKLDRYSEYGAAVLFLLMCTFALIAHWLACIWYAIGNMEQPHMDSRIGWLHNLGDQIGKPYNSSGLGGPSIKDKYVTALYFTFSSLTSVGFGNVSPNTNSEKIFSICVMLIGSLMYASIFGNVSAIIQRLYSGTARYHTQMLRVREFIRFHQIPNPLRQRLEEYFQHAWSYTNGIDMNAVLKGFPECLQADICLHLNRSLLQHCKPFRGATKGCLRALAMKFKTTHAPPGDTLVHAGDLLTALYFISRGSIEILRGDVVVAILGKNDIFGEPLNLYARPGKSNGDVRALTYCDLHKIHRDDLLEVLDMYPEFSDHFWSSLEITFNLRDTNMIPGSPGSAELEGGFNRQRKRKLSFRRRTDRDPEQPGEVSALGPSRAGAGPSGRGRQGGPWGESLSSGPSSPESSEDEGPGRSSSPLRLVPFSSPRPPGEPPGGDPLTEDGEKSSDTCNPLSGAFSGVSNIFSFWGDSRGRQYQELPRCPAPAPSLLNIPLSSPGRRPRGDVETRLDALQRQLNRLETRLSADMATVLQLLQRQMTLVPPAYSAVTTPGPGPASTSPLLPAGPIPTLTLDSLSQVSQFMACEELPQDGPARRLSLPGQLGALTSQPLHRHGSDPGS", "experiment": "whole-cell patch-clamp of native IKr tail current", "type": "cell-based", "data": [{"smiles": "c1ccc2c(c1)ccc1ccccc12", "note": "[Phe, phenanthrene]", "values": [{"measurement": "inhibition at 25 µM", "result": 55.8, "unit": "%"}]}]}
